{"source": "paper PMC5352362", "about": "“Molecular and functional evaluation of a novel HIF inhibitor, benzopyranyl 1,2,3-triazole compound” (Oncotarget, 2016)", "key": {"HIF-1α": {"target": "HIF-1α (Homo sapiens, UniProt Q16665)", "sequence (Q16665 whole entry)": "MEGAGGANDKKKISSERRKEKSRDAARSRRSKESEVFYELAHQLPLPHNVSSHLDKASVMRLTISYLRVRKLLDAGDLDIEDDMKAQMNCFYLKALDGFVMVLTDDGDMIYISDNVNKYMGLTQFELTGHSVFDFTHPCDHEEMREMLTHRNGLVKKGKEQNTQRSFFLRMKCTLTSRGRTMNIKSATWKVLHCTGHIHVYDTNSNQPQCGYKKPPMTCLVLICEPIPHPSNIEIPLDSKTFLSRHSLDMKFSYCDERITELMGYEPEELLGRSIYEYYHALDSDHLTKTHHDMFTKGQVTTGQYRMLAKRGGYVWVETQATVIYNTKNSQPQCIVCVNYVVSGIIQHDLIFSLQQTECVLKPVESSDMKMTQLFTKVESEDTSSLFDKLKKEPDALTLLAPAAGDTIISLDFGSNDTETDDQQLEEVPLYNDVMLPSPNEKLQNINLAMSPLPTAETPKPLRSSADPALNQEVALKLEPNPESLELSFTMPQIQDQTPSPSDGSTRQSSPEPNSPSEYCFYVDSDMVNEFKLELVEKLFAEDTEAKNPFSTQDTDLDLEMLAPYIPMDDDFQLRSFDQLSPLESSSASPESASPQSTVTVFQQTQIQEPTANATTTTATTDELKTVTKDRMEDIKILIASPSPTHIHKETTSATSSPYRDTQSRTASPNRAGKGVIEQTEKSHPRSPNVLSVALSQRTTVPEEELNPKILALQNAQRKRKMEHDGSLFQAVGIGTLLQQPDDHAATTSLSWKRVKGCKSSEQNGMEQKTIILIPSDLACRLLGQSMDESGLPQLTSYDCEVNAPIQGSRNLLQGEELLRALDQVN", "experiment": "Immunofluorescence of nuclear HIF-1α in A549 cells", "format": "cell-based", "details": "1–100 nM, hypoxia 16 h", "experimental": "To further confirm the effects of Compound 12 on the inhibition of HIF-1α protein expression, we performed an immunofluorescent assay in A549 cells. Cells were treated with Compound 12 (1–100 nM) for 16 h under hypoxic conditions, and were then fixed with paraformaldehyde. Fixed cells were processed to allow immunostaining of HIF-1α by a HIF-1α antibody.\nFigure 4 Compound 12 increased hydroxylation and proteasome-mediated degradation of HIF-1α (A) A549 cells were treated with Compound 12 (at concentrations of 0 nM, 1 nM, 10 nM, and 100 nM) for 16 h. […] Cells were immediately treated with cycloheximide (CHX, 100 μg/mL) for the time indicated, and HIF-1α protein levels were determined by western blotting. β-actin was used as an internal control. Half-life (t1/2) of HIF-1α protein was determined using relative expression levels of HIF-1α. […] The expression levels of HIF-1α, hydroxylated (OH)-HIF-1α at P402 or P564, and PHD2 were determined via western blotting using specific antibodies. […] Relative levels of ubiquitinated HIF-1α were quantified and graphed.\nCells were cultured on coverslips in four-well plates at a density of 1 × 10^5 cells/well, and allowed to attach for 24 h. […] Coverslips were mounted on slides, and cells were observed using fluorescence microscopy at 400X magnification (Carl Zeiss, AG, Germany)."}, "[1]": {"tested_on": "chick chorioallantoic membrane angiogenesis", "experiment": "Chick embryo chorioallantoic membrane (CAM) assay", "format": "in vivo", "details": "applied to ED 4.5 CAM for two days; Compound 12 0.1 μg and 1 μg", "experimental": "Figure 5 Compound 12 suppressed HIF-1α target gene expression, and confirmation of in vitro results via determination of effects on angiogenesis in vivo (A) A549 cells were treated with Compound 12 (at concentrations of 0 nM, 1 nM, 10 nM, and 100 nM) for 16 h. The mRNA levels of HIF-1α target genes were determined by semiquantitative RT-PCR. β-actin was used as an internal control. D. DMSO vehicle control. N, normoxia; H, hypoxia. (B) A549 cells were treated with serum-reduced culture media containing Compound 12 (at concentrations of 0 nM, 10 nM, and 100 nM) for 16 h. Media supernatant was collected, and secreted VEGF was determined by ELISA after removal of cellular debris. N, normoxia; H, hypoxia. **P < 0.01 versus hypoxia (H) DMSO (D)-treated control. (C) HUVECs were treated with Compound 12, at the indicated concentrations, in the presence of VEGF (20 ng/mL) for 24 h in 1% serum-containing media. […] Cells that migrated through the membrane (8 μm pore size) were stained with hematoxylin and eosin, pictured as shown in upper panel, and counted (graph). *P < 0.05, **P < 0.01 versus VEGF-treated control. […] (F) Compound 12 (0.1 μg and 1 μg dosages) and retinoic acid (RA, positive control) were applied to the ED 4.5 CAM for two days, neovessel formation from the large vessels was observed, and percentages of positive angiogenic eggs (from total eggs tested) were calculated. […]"}}, "data": [{"smiles": "COc1ccc(-c2cn(CC3(C)C=Cc4cc([N+](=O)[O-])ccc4O3)nn2)cc1", "note": "(stereo not drawn) [Compound 12, 4-(4-methoxyphenyl)-1-((2-methyl-6-nitro-2H-chromen-2-yl)methyl)-1H-1,2,3-triazole]", "values": [{"measurement": "accumulation of nuclear HIF-1α", "setting": "HIF-1α", "result": "inhibited in dose-dependent manner"}, {"measurement": "subcellular localization of HIF-1α", "setting": "HIF-1α", "result": "did not affect"}, {"measurement": "CAM angiogenesis", "setting": "[1]", "result": "significantly suppressed CAM angiogenesis, in a dose-dependent manner"}]}]}
